Test results reported in patent US11541028B2, “Peptide pharmaceuticals for treatment of NASH and other disorders” (Mederis Diabetes LLC, priority 2018, dated 2023).
Read-outs that look alike come from different tables or passages of the source.

Legend:
human glucagon receptor = molecular target: T1, human glucagon receptor (Homo sapiens, UniProt P47871); assay: DiscoveRx LeadHunter cellular assay, cAMP stimulation, glucagon receptor in CHO cells; format: cell-based
T1 construct: host or cells: CHO cells

human GLP-1 receptor = molecular target: T2, human GLP-1 receptor (Homo sapiens, UniProt P43220); assay: DiscoveRx LeadHunter cellular assay, cAMP stimulation, GLP-1 receptor in CHO cells; format: cell-based; settings: human GLP-1 receptor in CHO cells (DiscoveRx); read-out: EC50 cAMP GLP-1 R
T2 construct: host or cells: CHO cells

[1] = read-out: EC50 cAMP Glucagon R, human glucagon receptor in CHO cells (DiscoveRx)

T2 sequence (P43220 24-463): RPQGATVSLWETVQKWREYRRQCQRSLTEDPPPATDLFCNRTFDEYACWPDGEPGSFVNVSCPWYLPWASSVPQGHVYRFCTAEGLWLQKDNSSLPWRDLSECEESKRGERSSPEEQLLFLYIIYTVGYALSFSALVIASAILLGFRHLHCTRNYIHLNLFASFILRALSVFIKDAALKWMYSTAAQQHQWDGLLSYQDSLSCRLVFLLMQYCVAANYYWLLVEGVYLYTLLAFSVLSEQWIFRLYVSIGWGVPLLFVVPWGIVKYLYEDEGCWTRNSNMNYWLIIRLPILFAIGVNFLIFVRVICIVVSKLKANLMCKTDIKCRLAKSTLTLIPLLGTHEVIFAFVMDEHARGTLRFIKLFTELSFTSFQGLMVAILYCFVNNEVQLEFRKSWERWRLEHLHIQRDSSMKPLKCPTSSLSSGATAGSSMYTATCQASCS
T1 sequence (P47871 26-477): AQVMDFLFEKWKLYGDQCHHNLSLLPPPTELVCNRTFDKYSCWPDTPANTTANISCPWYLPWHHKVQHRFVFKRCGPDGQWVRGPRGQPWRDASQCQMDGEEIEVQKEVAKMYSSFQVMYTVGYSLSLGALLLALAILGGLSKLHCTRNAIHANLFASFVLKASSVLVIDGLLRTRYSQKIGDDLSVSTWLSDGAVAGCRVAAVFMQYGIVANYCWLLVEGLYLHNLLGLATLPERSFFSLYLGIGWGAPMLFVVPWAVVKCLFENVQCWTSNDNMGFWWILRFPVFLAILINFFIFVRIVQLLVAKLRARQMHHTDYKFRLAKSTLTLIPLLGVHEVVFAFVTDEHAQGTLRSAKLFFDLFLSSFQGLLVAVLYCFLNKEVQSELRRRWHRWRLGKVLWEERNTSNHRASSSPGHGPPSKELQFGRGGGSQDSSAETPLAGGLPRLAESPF

Row | SMILES | EC50 (human glucagon receptor) [nM] | EC50 (human GLP-1 receptor) [nM] | EC50 (human glucagon receptor; [1]) [nM]
1 | CCCCCCCCCCCCCCO[C@@H]1O[C@H](C(=O)NCCCC[C@H](NC(=O)[C@@H](NC(=O)[C@H](Cc2ccccc2)NC(=O)[C@H](CCC(=O)O)NC(=O)[C@@H]2CCCCNC(=O)CC[C@H](NC(=O)[C@H](CC(=O)O)NC(=O)[C@H](CC(C)C)NC(=O)[C@H](Cc3ccc(O)cc3)NC(=O)[C@H](CCCCN)NC(=O)[C@H](CO)NC(=O)[C@H](Cc3ccc(O)cc3)NC(=O)[C@H](CC(=O)O)NC(=O)[C@H](CO)NC(=O)[C@@H](NC(=O)[C@H](Cc3ccccc3)NC(=O)[C@@H](NC(=O)CNC(=O)[C@H](CCC(N)=O)NC(=O)C(C)(C)NC(=O)[C@@H](N)Cc3c[nH]cn3)[C@@H](C)O)[C@@H](C)O)C(=O)N[C@@H](CCC(N)=O)C(=O)N[C@@H](C)C(=O)N[C@@H](C)C(=O)N2)[C@@H](C)CC)C(=O)N[C@@H](Cc2c[nH]c3ccccc23)C(=O)N[C@@H](CC(C)C)C(=O)N[C@@H](CC(C)C)C(=O)N[C@@H](CCC(N)=O)C(=O)N[C@H](C(=O)O)[C@@H](C)O)[C@@H](O)[C@H](O)[C@H]1O [EU-A1682] | 1.26 | 0.21 | 
2 | CCCCCCCCCCO[C@@H]1O[C@H](C(=O)NCCCC[C@H](N)C(=O)NCCCC[C@H](NC(=O)[C@@H](NC(=O)[C@H](Cc2ccccc2)NC(=O)[C@H](CCC(=O)O)NC(=O)[C@@H]2CCCCNC(=O)CC[C@H](NC(=O)[C@H](CC(=O)O)NC(=O)[C@H](CC(C)C)NC(=O)[C@H](Cc3ccc(O)cc3)NC(=O)[C@H](CCCCN)NC(=O)[C@H](CO)NC(=O)[C@H](Cc3ccc(O)cc3)NC(=O)[C@H](CC(=O)O)NC(=O)[C@H](CO)NC(=O)[C@@H](NC(=O)[C@H](Cc3ccccc3)NC(=O)[C@@H](NC(=O)CNC(=O)[C@H](CCC(N)=O)NC(=O)C(C)(C)NC(=O)[C@@H](N)Cc3c[nH]cn3)[C@@H](C)O)[C@@H](C)O)C(=O)N[C@@H](CCC(N)=O)C(=O)N[C@@H](C)C(=O)N[C@@H](C)C(=O)N2)[C@@H](C)CC)C(=O)N[C@@H](Cc2c[nH]c3ccccc23)C(=O)N[C@@H](CC(C)C)C(=O)N[C@@H](CC(C)C)C(=O)N[C@@H](CCC(N)=O)C(=O)N[C@H](C(N)=O)[C@@H](C)O)[C@@H](O)[C@H](O)[C@H]1O [EU-A1710] | 0.065 | 0.026 | 
3 | CCCCCCCCCCCCO[C@@H]1O[C@H](C(=O)NCCCC[C@H](N)C(=O)NCCCC[C@H](NC(=O)[C@@H](NC(=O)[C@H](Cc2ccccc2)NC(=O)[C@H](CCC(=O)O)NC(=O)[C@@H]2CCCCNC(=O)CC[C@H](NC(=O)[C@H](CC(=O)O)NC(=O)[C@H](CC(C)C)NC(=O)[C@H](Cc3ccc(O)cc3)NC(=O)[C@H](CCCCN)NC(=O)[C@H](CO)NC(=O)[C@H](Cc3ccc(O)cc3)NC(=O)[C@H](CC(=O)O)NC(=O)[C@H](CO)NC(=O)[C@@H](NC(=O)[C@H](Cc3ccccc3)NC(=O)[C@@H](NC(=O)CNC(=O)[C@H](CCC(N)=O)NC(=O)C(C)(C)NC(=O)[C@@H](N)Cc3c[nH]cn3)[C@@H](C)O)[C@@H](C)O)C(=O)N[C@@H](CCC(N)=O)C(=O)N[C@@H](C)C(=O)N[C@@H](C)C(=O)N2)[C@@H](C)CC)C(=O)N[C@@H](Cc2c[nH]c3ccccc23)C(=O)N[C@@H](CC(C)C)C(=O)N[C@@H](CC(C)C)C(=O)N[C@@H](CCC(N)=O)C(=O)N[C@H](C(N)=O)[C@@H](C)O)[C@@H](O)[C@H](O)[C@H]1O [EU-A1711] | 0.026 | 0.009 | 
4 | CCCCCCCCCCCCCCO[C@@H]1O[C@H](C(=O)NCCCC[C@H](N)C(=O)NCCCC[C@H](NC(=O)[C@@H](NC(=O)[C@H](Cc2ccccc2)NC(=O)[C@H](CCC(=O)O)NC(=O)[C@@H]2CCCCNC(=O)CC[C@H](NC(=O)[C@H](CC(=O)O)NC(=O)[C@H](CC(C)C)NC(=O)[C@H](Cc3ccc(O)cc3)NC(=O)[C@H](CCCCN)NC(=O)[C@H](CO)NC(=O)[C@H](Cc3ccc(O)cc3)NC(=O)[C@H](CC(=O)O)NC(=O)[C@H](CO)NC(=O)[C@@H](NC(=O)[C@H](Cc3ccccc3)NC(=O)[C@@H](NC(=O)CNC(=O)[C@H](CCC(N)=O)NC(=O)C(C)(C)NC(=O)[C@@H](N)Cc3c[nH]cn3)[C@@H](C)O)[C@@H](C)O)C(=O)N[C@@H](CCC(N)=O)C(=O)N[C@@H](C)C(=O)N[C@@H](C)C(=O)N2)[C@@H](C)CC)C(=O)N[C@@H](Cc2c[nH]c3ccccc23)C(=O)N[C@@H](CC(C)C)C(=O)N[C@@H](CC(C)C)C(=O)N[C@@H](CCC(N)=O)C(=O)N[C@H](C(N)=O)[C@@H](C)O)[C@@H](O)[C@H](O)[C@H]1O [EU-A1712] |  | 0.037 | 0.175
5 | CCCCCCCCCCCCCCCCO[C@@H]1O[C@H](C(=O)NCCCC[C@H](N)C(=O)NCCCC[C@H](NC(=O)[C@@H](NC(=O)[C@H](Cc2ccccc2)NC(=O)[C@H](CCC(=O)O)NC(=O)[C@@H]2CCCCNC(=O)CC[C@H](NC(=O)[C@H](CC(=O)O)NC(=O)[C@H](CC(C)C)NC(=O)[C@H](Cc3ccc(O)cc3)NC(=O)[C@H](CCCCN)NC(=O)[C@H](CO)NC(=O)[C@H](Cc3ccc(O)cc3)NC(=O)[C@H](CC(=O)O)NC(=O)[C@H](CO)NC(=O)[C@@H](NC(=O)[C@H](Cc3ccccc3)NC(=O)[C@@H](NC(=O)CNC(=O)[C@H](CCC(N)=O)NC(=O)C(C)(C)NC(=O)[C@@H](N)Cc3c[nH]cn3)[C@@H](C)O)[C@@H](C)O)C(=O)N[C@@H](CCC(N)=O)C(=O)N[C@@H](C)C(=O)N[C@@H](C)C(=O)N2)[C@@H](C)CC)C(=O)N[C@@H](Cc2c[nH]c3ccccc23)C(=O)N[C@@H](CC(C)C)C(=O)N[C@@H](CC(C)C)C(=O)N[C@@H](CCC(N)=O)C(=O)N[C@H](C(N)=O)[C@@H](C)O)[C@@H](O)[C@H](O)[C@H]1O [EU-A1713] | 2.51 | 0.308 | 
6 | CCCCCCCCCCCCCCCCO[C@@H]1O[C@H](C(=O)N[C@@H](CCC(=O)NCCCC[C@H](NC(=O)[C@@H](NC(=O)[C@H](Cc2ccccc2)NC(=O)[C@H](CCC(=O)O)NC(=O)[C@@H]2CCCCNC(=O)CC[C@H](NC(=O)[C@H](CC(=O)O)NC(=O)[C@H](CC(C)C)NC(=O)[C@H](Cc3ccc(O)cc3)NC(=O)[C@H](CCCCN)NC(=O)[C@H](CO)NC(=O)[C@H](Cc3ccc(O)cc3)NC(=O)[C@H](CC(=O)O)NC(=O)[C@H](CO)NC(=O)[C@@H](NC(=O)[C@H](Cc3ccccc3)NC(=O)[C@@H](NC(=O)CNC(=O)[C@H](CCC(N)=O)NC(=O)C(C)(C)NC(=O)[C@@H](N)Cc3c[nH]cn3)[C@@H](C)O)[C@@H](C)O)C(=O)N[C@@H](CCC(N)=O)C(=O)N[C@@H](C)C(=O)N[C@@H](C)C(=O)N2)[C@@H](C)CC)C(=O)N[C@@H](Cc2c[nH]c3ccccc23)C(=O)N[C@@H](CC(C)C)C(=O)N[C@@H](CC(C)C)C(=O)N[C@@H](CCC(N)=O)C(=O)N[C@H](C(N)=O)[C@@H](C)O)C(=O)O)[C@@H](O)[C@H](O)[C@H]1O [EU-A1719] | 0.746 | 0.095 | 

Next, values leading:

Row | EC50 (human glucagon receptor) [nM] | EC50 (human GLP-1 receptor) [nM] | EC50 (human glucagon receptor; [1]) [nM] | SMILES
7 | 0.032 | 0.013 |  | CCCCCCCCCCO[C@@H]1O[C@H](C(=O)N[C@@H](CCC(=O)NCCCC[C@H](NC(=O)[C@@H](NC(=O)[C@H](Cc2ccccc2)NC(=O)[C@H](CCC(=O)O)NC(=O)[C@@H]2CCCCNC(=O)CC[C@H](NC(=O)[C@H](CC(=O)O)NC(=O)[C@H](CC(C)C)NC(=O)[C@H](Cc3ccc(O)cc3)NC(=O)[C@H](CCCCN)NC(=O)[C@H](CO)NC(=O)[C@H](Cc3ccc(O)cc3)NC(=O)[C@H](CC(=O)O)NC(=O)[C@H](CO)NC(=O)[C@@H](NC(=O)[C@H](Cc3ccccc3)NC(=O)[C@@H](NC(=O)CNC(=O)[C@H](CCC(N)=O)NC(=O)C(C)(C)NC(=O)[C@@H](N)Cc3c[nH]cn3)[C@@H](C)O)[C@@H](C)O)C(=O)N[C@@H](CCC(N)=O)C(=O)N[C@@H](C)C(=O)N[C@@H](C)C(=O)N2)[C@@H](C)CC)C(=O)N[C@@H](Cc2c[nH]c3ccccc23)C(=O)N[C@@H](CC(C)C)C(=O)N[C@@H](CC(C)C)C(=O)N[C@@H](CCC(N)=O)C(=O)N[C@H](C(N)=O)[C@@H](C)O)C(=O)O)[C@@H](O)[C@H](O)[C@H]1O [EU-A1716]
8 | 0.035 | 0.011 |  | CCCCCCCCCCCCO[C@@H]1O[C@H](C(=O)N[C@@H](CCC(=O)NCCCC[C@H](NC(=O)[C@@H](NC(=O)[C@H](Cc2ccccc2)NC(=O)[C@H](CCC(=O)O)NC(=O)[C@@H]2CCCCNC(=O)CC[C@H](NC(=O)[C@H](CC(=O)O)NC(=O)[C@H](CC(C)C)NC(=O)[C@H](Cc3ccc(O)cc3)NC(=O)[C@H](CCCCN)NC(=O)[C@H](CO)NC(=O)[C@H](Cc3ccc(O)cc3)NC(=O)[C@H](CC(=O)O)NC(=O)[C@H](CO)NC(=O)[C@@H](NC(=O)[C@H](Cc3ccccc3)NC(=O)[C@@H](NC(=O)CNC(=O)[C@H](CCC(N)=O)NC(=O)C(C)(C)NC(=O)[C@@H](N)Cc3c[nH]cn3)[C@@H](C)O)[C@@H](C)O)C(=O)N[C@@H](CCC(N)=O)C(=O)N[C@@H](C)C(=O)N[C@@H](C)C(=O)N2)[C@@H](C)CC)C(=O)N[C@@H](Cc2c[nH]c3ccccc23)C(=O)N[C@@H](CC(C)C)C(=O)N[C@@H](CC(C)C)C(=O)N[C@@H](CCC(N)=O)C(=O)N[C@H](C(N)=O)[C@@H](C)O)C(=O)O)[C@@H](O)[C@H](O)[C@H]1O [EU-A1717]
9 |  | 0.043 | 0.097 | CCCCCCCCCCCCCCO[C@@H]1O[C@H](C(=O)N[C@@H](CCC(=O)NCCCC[C@H](NC(=O)[C@@H](NC(=O)[C@H](Cc2ccccc2)NC(=O)[C@H](CCC(=O)O)NC(=O)[C@@H]2CCCCNC(=O)CC[C@H](NC(=O)[C@H](CC(=O)O)NC(=O)[C@H](CC(C)C)NC(=O)[C@H](Cc3ccc(O)cc3)NC(=O)[C@H](CCCCN)NC(=O)[C@H](CO)NC(=O)[C@H](Cc3ccc(O)cc3)NC(=O)[C@H](CC(=O)O)NC(=O)[C@H](CO)NC(=O)[C@@H](NC(=O)[C@H](Cc3ccccc3)NC(=O)[C@@H](NC(=O)CNC(=O)[C@H](CCC(N)=O)NC(=O)C(C)(C)NC(=O)[C@@H](N)Cc3c[nH]cn3)[C@@H](C)O)[C@@H](C)O)C(=O)N[C@@H](CCC(N)=O)C(=O)N[C@@H](C)C(=O)N[C@@H](C)C(=O)N2)[C@@H](C)CC)C(=O)N[C@@H](Cc2c[nH]c3ccccc23)C(=O)N[C@@H](CC(C)C)C(=O)N[C@@H](CC(C)C)C(=O)N[C@@H](CCC(N)=O)C(=O)N[C@H](C(N)=O)[C@@H](C)O)C(=O)O)[C@@H](O)[C@H](O)[C@H]1O [EU-A1718]
